Measured values from US20130267571A1, “TERPENOID ANALOGUES AND USES THEREOF FOR TREATING NEUROLOGICAL CONDITIONS” (NeuroQuest Inc., priority 2010, published 2013).

Tested on: voltage-gated Na+ channels
Assay: Sodium (Na+) channel analysis in rat DRG neurons using whole cell patch-clamp
Type: cell-based
Conditions: Na+ currents in isolated rat DRG neurons, 3 min in presence of drug, read-out: IC50 range
Protocol: Isolated DRG neurons were suspended in primary neuron basal media and placed on glass coverslips for incubation in humidified atmosphere of 5% CO2 at 37° C. Coverslips carrying cells was transferred to the bath of an inverted microscope (Zeiss), continuously perfused with oxygenated artificial cerebro-spinal fluid (ACSF) containing (in mM) 124 NaCl, 2.5 KCl, 2 CaCl2, 1 MgSO4, 25 NaHCO3, 1 NaH2PO4, and 10 glucose, at a rate of 2-3 ml/min. Recording of whole-cell membrane currents were made at room temperature. Recording pipette (4-6 MS2) was filled with internal solution containing (in mM) 145 K-gluconate, 5 NaCl, 1 MgCl2, 0.2 EGTA, 10 HEPES, 2 Mg-ATP, 0.1 Na-GTP, and 10 phosphocreatine. To isolate Na^+ currents, DRG neurons were superfused with ACSF containing tetraethylammonium chloride (TEA) 5 mM, cesium chloride (CsCl) 100 μM and cadmium chloride (CdCl) 1 mM, to block potassium and calcium currents. NQ compounds were freshly dissolved in ASCF containing TEA, CsCl and CdCl, prior application via the bath.
For recording Na^+ currents, cells were held at −60 mV before applying a conditioning hyperpolarizing step (50 ms) to −90 mv to reactivate the voltage-gated Na^+ channels. The conditioning pulse was followed by depolarizing (150 ms) test pulses to 50 mV in 10 mV increments. Na^+ currents were recorded in absence, after 3 min in presence of the drugs and after a recovery time of 3 min.

SMILES | IC50 [µM]
CC(C)=CCC/C(C)=C\S(=O)(=O)NCC(F)(F)F [NQ 3069, (Z)-2,6-dimethyl-N-(2,2,2-trifluoroethyl)hepta-1,5-diene-1-sulfonamide] | 100 to 1000
CC(C)=CCC/C(C)=C/S(C)(=O)=O [NQ 3047, (E)-2,6-dimethyl-1-(methylsulfonyl)hepta-1,5-diene] | 1000 to 5000
CC(C)=CCC/C(C)=C\S(=O)(=O)N(C)C [NQ 3050, (Z)-N,N,2,6-tetramethylhepta-1,5-diene-1-sulfonamide] | 100 to 1000
CNC/C=C(\C)CCC=C(C)C [NQ 3007, (E)-N,3,7-trimethylocta-2,6-dien-1-amine] | 1000 to 5000
CC(C)=CCC/C(C)=C/C(=O)O [NQ 2984, (E)-3,7-dimethylocta-2,6-dienoic acid] | 1000 to 5000
CC(C)=CCC/C(C)=C/C(N)Cc1ccccc1 (stereo not shown) [NQ 3089, (E)-4,8-dimethyl-1-phenylnona-3,7-dien-2-amine] | < 100
CC(C)=CCC/C(C)=C/CN(C)C [NQ 2990, (E)-N,N,3,7-tetramethylocta-2,6-dien-1-amine] | 1000 to 5000
CC(C)=CCC/C(C)=C/S(=O)(=O)Nc1ccccc1 [NQ 3070, (E)-2,6-dimethyl-N-phenylhepta-1,5-diene-1-sulfonamide] | 100 to 1000
CC(C)=CCCC(C)=CC(=O)O [NQ 2978, 3,7-dimethyloct-2,6-dienoic acid] | > 10000
CC(C)=CCC/C(C)=C/C(O)C(C)C (stereo not shown) [NQ 3083, (E)-2,5,9-trimethyldeca-4,8-dien-3-ol] | 1000 to 5000
CC(C)=CCC/C(C)=C/C[S+](C)[O-] (stereo not shown) [NQ 3054, (E)-3,7-dimethyl-1-(methylsulfinyl)octa-2,6-diene] | 1000 to 5000
CC(C)=CCCC(C)=Cc1nn[nH]n1 [NQ 3045, 5-(2,6-dimethylhepta-1,5-dien-1-yl)-2H-tetrazole] | 1000 to 5000
CC(C)=CCC/C(C)=C/C(=O)C(F)(F)F [NQ 3066, (E)-1,1,1-trifluoro-4,8-dimethylnona-3,7-dien-2-one] | 1000 to 5000
CC(C)=CCC/C(C)=C\C=O [NQ 3000, (Z)-3,7-dimethylocta-2,6-dienal] | 5000 to 10000
CNC(=O)/C=C(\C)CCC=C(C)C [NQ 2991, (E)-N,3,7-trimethylocta-2,6-dienamide] | 1000 to 5000
CC(C)=CCC/C(C)=C/C(C)N (stereo not shown) [NQ 3079, (E)-4,8-dimethylnona-3,7-dien-2-amine] | 100 to 1000
CC(C)=CCC/C(C)=C/C(N)C(C)C (stereo not shown) [NQ 3082, (E)-2,5,9-trimethyldeca-4,8-dien-3-amine] | < 100
CNS(=O)(=O)/C=C(/C)CCC=C(C)C [NQ 3061, (Z)-N,2,6-trimethylhepta-1,5-diene-1-sulfonamide] | 100 to 1000
CC(C)=CCC/C(C)=C/CNC(=O)c1ccccc1O [NQ 2987, (E)-N-(3,7-dimethylocta-2,6-dienyl)-2-hydroxybenzamide] | 1000 to 5000
CC(C)=CCC/C(C)=C/CNC(=O)c1ccccc1 [NQ 2982, (E)-N-(3,7-dimethylocta-2,6-dienyl)benzamide] | 1000 to 5000
CC(C)=CCC/C(C)=C\C(=O)O [NQ 3001, (Z)-3,7-dimethylocta-2,6-dienoic acid] | > 10000
COC/C=C(\C)CCC=C(C)C [NQ 2976, (E)-1-methoxy-3,7-dimethylocta-2,6-diene] | 1000 to 5000

SMILES | IC50 [µM]
CC(C)=CCC/C(C)=C/S(=O)(=O)NCC(F)(F)F [NQ 3064, (E)-2,6-dimethyl-N-(2,2,2-trifluoroethyl)hepta-1,5-diene-1-sulfonamide] | 1000 to 5000
CC(C)=CCC/C(C)=C/C(N)c1ccccc1 (stereo not shown) [NQ 3085, (E)-3,7-dimethyl-1-phenylocta-2,6-dien-1-amine] | < 100
CC(C)=CCC/C(C)=C/CN (single isomer, unassigned) [NQ 2981, (E)-3,7-dimethylocta-2,6-dien-1-amine] | < 100
CC(C)=CCC/C(C)=C/[S+](C)[O-] (stereo not shown) [NQ 3057, (E)-2,6-dimethyl-1-(methylsulfinyl)hepta-1,5-diene] | 1000 to 5000
CCC(N)/C=C(\C)CCC=C(C)C (stereo not shown) [NQ 3078, (E)-5,9-dimethyldeca-4,8-dien-3-amine] | < 100
CC(C)=CCC/C(C)=C/CS(C)(=O)=O [NQ 3053, (E)-3,7-dimethyl-1-(methylsulfonyl)octa-2,6-diene] | 1000 to 5000
CC(C)=CCC/C(C)=C/C(=O)N(C)C [NQ 2988, (E)-N,N,3,7-tetramethylocta-2,6-dienamide] | 1000 to 5000
CON(C)C(=O)/C=C(\C)CCC=C(C)C [NQ 3052, (E)-N-methoxy-N,3,7-trimethylocta-2,6-dienamide] | 100 to 1000
CC(C)=CCC/C(C)=C/COCc1ccccc1 [NQ 2977, (E)-((3,7-dimethylocta-2,6-dienyloxy)methyl)benzene] | 1000 to 5000
CC(C)=CCC/C(C)=C/C(N)=O [NQ 2992, (E)-3,7-dimethylocta-2,6-dienamide] | 100 to 1000
CC(C)=CCC/C(C)=C/S(=O)(=O)NCc1ccccc1 [NQ 3071, (E)-N-benzyl-2,6-dimethylhepta-1,5-diene-1-sulfonamide] | 100 to 1000
CNS(=O)(=O)/C=C(\C)CCC=C(C)C [NQ 3060, (E)-N,2,6-trimethylhepta-1,5-diene-1-sulfonamide] | 1000 to 5000
CC(C)=CCC/C(C)=C/C(O)C(F)(F)F (stereo not shown) [NQ 3065, (E)-1,1,1-trifluoro-4,8-dimethylnona-3,7-dien-2-ol] | 100 to 1000
CC(C)=CCC/C(C)=C/S(=O)(=O)N(C)C [NQ 3051, (E)-N,N,2,6-tetramethylhepta-1,5-diene-1-sulfonamide] | 100 to 1000
CC(=O)NC/C=C(\C)CCC=C(C)C [NQ 2985, (E)-N-(3,7-dimethylocta-2,6-dienyl)acetamide] | 1000 to 5000
CC(C)=CCC/C(C)=C/S(N)(=O)=O [NQ 3063, (E)-2,6-dimethylhepta-1,5-diene-1-sulfonamide] | 1000 to 5000
CC(C)=CCC/C(C)=C/C(O)(C(F)(F)F)C(F)(F)F [NQ 3067, (E)-1,1,1-trifluoro-4,8-dimethyl-2-(trifluoromethyl)nona-3,7-dien-2-ol] | 100 to 1000
CC(C)=CCC/C(C)=C/C(N)CCCO (stereo not shown) [NQ 3084, (E)-4-amino-6,10-dimethylundeca-5,9-dien-1-ol] | 100 to 1000
CC(C)=CCC/C(C)=C/C(=O)N(C)O [NQ 3055, (E)-N-hydroxy-N,3,7-trimethylocta-2,6-dienamide] | 100 to 1000
CC(C)=CCC/C(C)=C\[S+](C)[O-] (stereo not shown) [NQ 3062, (Z)-2,6-dimethyl-1-(methylsulfinyl)hepta-1,5-diene] | 1000 to 5000
CCCC(N)/C=C(\C)CCC=C(C)C (stereo not shown) [NQ 3081, (E)-6,10-dimethylundeca-5,9-dien-4-amine] | < 100
CC(C)=CCC/C(C)=C/C(=O)Nc1ccccc1 [NQ 2986, (E)-3,7-dimethyl-N-phenylocta-2,6-dienamide] | 5000 to 10000

Tested on: zebrafish embryos
Assay: Zebrafish response (anaesthesia) assay, touch response/swim behaviour
Type: in vivo
Conditions: Danio rerio, 1.5 h; complete anaesthesia (scale 1) in 50% of AB wild type embryos (54 hpf), 90 min at 28° C.
Text: Briefly, the ZEA assay involves applying essential oils, fractions or individual compounds to developmentally staged zebrafish embryos followed by monitoring of embryonic touch response/swim behaviour and evaluation of the dose response relationship for each substance. Using a four point scale to describe the embryonic behaviours (Table 4), initial analysis focused on monitoring and recording these changes and evaluating the level of bioactivity. The effective concentration to generate complete anaesthesia in 50% of the embryos (EC50), were evaluated as follows:
Compounds are tested on developmentally staged AB “wild type” zebrafish embryos (54 hpf+/−2 hpf) at concentrations ranging between 10 and 400 μM.
Each compound is diluted in a 95% ethanol or DMSO carrier to create a working stock solution from which appropriate dilutions are made in standard embryo E3 media.
1000 μl of each concentration or appropriate carrier control are added to 10 wild type AB embryos in a single well of a 24 well plate, in duplicate.
The embryos are incubated for 90 min at 28° C. (optimal temperature for embryonic growth) in the diluted compound.
A four point scale (Table 4) is used to evaluate the touch response and swim behaviour for each embryo in all wells.
The effectiveness of the compound will be based on its ability to generate complete anaesthesia (scale: 1) in 50% of the embryos at a given concentration (EC50).
The EC50 values are calculated using GraphPad Prism® software to analyze the log (dose) response curves.

SMILES | EC50 [µM]
CC(C)=CCC/C(C)=C/C(=O)O [NQ 2984, (E)-3,7-dimethylocta-2,6-dienoic acid] | > 200
CC(C)=CCCC(C)=CC(=O)O [NQ 2978, 3,7-dimethyloct-2,6-dienoic acid] | 71.1
CC(C)=CCC/C(C)=C/CNC(=O)c1ccccc1O [NQ 2987, (E)-N-(3,7-dimethylocta-2,6-dienyl)-2-hydroxybenzamide] | 134
CC(C)=CCC/C(C)=C/CNC(=O)c1ccccc1 [NQ 2982, (E)-N-(3,7-dimethylocta-2,6-dienyl)benzamide] | 103
COC/C=C(\C)CCC=C(C)C [NQ 2976, (E)-1-methoxy-3,7-dimethylocta-2,6-diene] | 874
CC(C)=CCC/C(C)=C/CN (single isomer, unassigned) [NQ 2981, (E)-3,7-dimethylocta-2,6-dien-1-amine] | 217
CC(=O)NC/C=C(\C)CCC=C(C)C [NQ 2985, (E)-N-(3,7-dimethylocta-2,6-dienyl)acetamide] | 264
CC(C)=CCC/C(C)=C/C(=O)Nc1ccccc1 [NQ 2986, (E)-3,7-dimethyl-N-phenylocta-2,6-dienamide] | 449
